{
  "source": "paper PMC4335872",
  "about": "“Pharmacokinetic-Pharmacodynamic Analysis of Spiroindolone Analogs and KAE609 in a Murine Malaria Model” (Antimicrobial Agents and Chemotherapy, 2015)",
  "tested_on": "P. berghei",
  "test": "Dose fractionation and PK-PD analysis of KAE609 in the P. berghei malaria mouse model",
  "assay_type": "in vivo, NMRI mice",
  "details": "for Parasitemia (mean ± SD): 48 h posttreatment; for %T>TRE: simulated, 48-h period",
  "description": "The total daily doses were either administered as a single dose (24 h postinfection) or divided into two oral doses (BID) or three oral doses (TID) per day (Table 1). Four mice were used for each regimen, with the control mice receiving vehicle only. Parasitemia, expressed as parasitized red blood cells (pRBCs) of >100 RBCs, was determined at 72 h postinfection (48 h after the initiation of treatment with KAE609) using standard flow cytometry techniques ([39]).\nThe concentration of compounds that inhibited 99% of P. berghei growth (IC99) was used to calculate the threshold (TRE = 2 × IC99) and the PK-PD indices. […] The Cmax/TRE, AUC0–48/TRE, and %T>TRE at different doses and dosing regimens were calculated using the Berkeley Madonna Software (version 8.0.1) (Berkeley Madonna, University of California, Berkeley, Berkeley, CA).\nThe relationship between PK-PD indices (log-transformed Cmax/TRE, log-transformed AUC0–48/TRE, and %T>TRE) and log-transformed parasitemia was analyzed by nonlinear regression analysis. An exploratory analysis of the PK-PD data was done using various models, such as maximum effect (Emax), sigmoid Emax, and with and without slope. A sigmoidal dose-response (variable-slope) model without constants was fitted to the data. GraphPad Prism version 5.02 for Windows (GraphPad Software, San Diego, CA, USA) was the software used for this analysis. The model choice was guided initially by a visual inspection of the y-by-x plots and then by correlation analysis and by evaluating the standard error of the estimate. The parasitemia (P) measures at any value of each different PK-PD index are expressed in equation 1, where EZ50 (otherwise referred to as EC50) is the value of the specific PK-PD index (Cmax/TRE, AUC0–48/TRE, and %T>TRE, respectively) required to produce 50% of the maximal effect, x is any of the PK-PD indices, and Pmax, Pmin, and s are as described previously. The values of x corresponding to the maximum reduction in parasitemia were derived by interpolation based on equation 1.",
  "key": {"[1]": {"details": "interpolated from PK-PD model, 48 h observation"}, "[2]": {"details": "total dose 0.5 mg/kg p.o. as 1 x 0.5 mg/kg"}, "[3]": {"details": "total dose 0.5 mg/kg p.o. as 2 x 0.25 mg/kg (every 12 h)"}, "[4]": {"details": "total dose 0.5 mg/kg p.o. as 3 x 0.17 mg/kg (every 8 h)"}, "[5]": {"details": "total dose 1 mg/kg p.o. as 1 x 1 mg/kg"}, "[6]": {"details": "total dose 1 mg/kg p.o. as 2 x 0.5 mg/kg (every 12 h)"}, "[7]": {"details": "total dose 1 mg/kg p.o. as 3 x 0.33 mg/kg (every 8 h)"}, "[8]": {"details": "total dose 2 mg/kg p.o. as 1 x 2 mg/kg"}, "[9]": {"details": "total dose 2 mg/kg p.o. as 2 x 1 mg/kg (every 12 h)"}, "[10]": {"details": "total dose 2 mg/kg p.o. as 3 x 0.67 mg/kg (every 8 h)"}, "[11]": {"details": "total dose 4 mg/kg p.o. as 1 x 4 mg/kg"}, "[12]": {"details": "total dose 4 mg/kg p.o. as 2 x 2 mg/kg (every 12 h)"}, "[13]": {"details": "total dose 4 mg/kg p.o. as 3 x 1.33 mg/kg (every 8 h)"}, "[14]": {"details": "total dose 8 mg/kg p.o. as 1 x 8 mg/kg"}, "[15]": {"details": "total dose 8 mg/kg p.o. as 2 x 4 mg/kg (every 12 h)"}, "[16]": {"details": "total dose 8 mg/kg p.o. as 3 x 2.67 mg/kg (every 8 h)"}},
  "data": [
    {"smiles": "C[C@H]1Cc2c([nH]c3cc(Cl)c(F)cc23)[C@@]2(N1)C(=O)Nc1ccc(Cl)cc12", "note": "[(+)-7 (KAE609)]", "values": [
      {"measurement": "Type of killing suggested by PK-PD analysis", "setting": "P. berghei malaria mouse model", "value": "time-dependent rather than concentration-dependent killing"},
      {"measurement": "AUC for reduction in parasitemia in the P. berghei murine malaria model", "setting": "TRE = 48 ng/ml", "value": "28,176 ng · h/ml"},
      {"measurement": "Cmax for reduction in parasitemia in the P. berghei murine malaria model", "setting": "TRE = 48 ng/ml", "value": "1,440 ng/ml"},
      {"measurement": "Cmax needed to reduce parasitemia by 50% in vivo", "setting": "as derived from Cmax/TRE (Table 5)", "value": 260, "unit": "ng/mL"},
      {"measurement": "AUC0–48/TRE ratio likely to result in the maximum reduction in parasitemia", "setting": "[1]", "value": 587},
      {"measurement": "Cmax/TRE ratio likely to result in the maximum reduction in parasitemia", "setting": "[1]", "value": 30},
      {"measurement": "T>TRE likely to result in the maximum reduction in parasitemia", "setting": "[1]", "value": 100, "unit": "%"},
      {"measurement": "Hill slope, value (95% CI), PK-PD model for %T>TRE", "setting": "parasitemia vs %T>TRE", "value": "−0.031 (−0.037 to −0.024)"},
      {"measurement": "Pmax, value (95% CI), PK-PD model for %T>TRE", "setting": "parasitemia vs %T>TRE", "value": "53.09 (32.28 to 87.50)"},
      {"measurement": "Pmin, value (95% CI), PK-PD model for %T>TRE", "setting": "parasitemia vs %T>TRE", "value": "0.15 (0.12 to 0.20)"},
      {"measurement": "Hill slope, value (95% CI), PK-PD model for AUC0–48/TRE", "setting": "parasitemia vs AUC0–48/TRE", "value": "−1.63 (−2.04 to −1.22)"},
      {"measurement": "Pmax, value (95% CI), PK-PD model for AUC0–48/TRE", "setting": "parasitemia vs AUC0–48/TRE", "value": "32.66 (25.06 to 42.56)"},
      {"measurement": "Pmin, value (95% CI), PK-PD model for AUC0–48/TRE", "setting": "parasitemia vs AUC0–48/TRE", "value": "0.13 (0.09 to 0.20)"},
      {"measurement": "Parasitemia (mean ± SD)", "setting": "[2]", "value": "28.82 ± 4.49", "unit": "%"},
      {"measurement": "%T>TRE", "setting": "[2]", "value": 4.3, "unit": "%"},
      {"measurement": "Parasitemia (mean ± SD)", "setting": "[3]", "value": "38.28 ± 2.95", "unit": "%"},
      {"measurement": "%T>TRE", "setting": "[3]", "value": 0, "unit": "%"},
      {"measurement": "Parasitemia (mean ± SD)", "setting": "[4]", "value": "35.37 ± 5.32", "unit": "%"},
      {"measurement": "%T>TRE", "setting": "[4]", "value": 0, "unit": "%"},
      {"measurement": "Parasitemia (mean ± SD)", "setting": "[5]", "value": "17.82 ± 3.05", "unit": "%"},
      {"measurement": "%T>TRE", "setting": "[5]", "value": 10.7, "unit": "%"},
      {"measurement": "Parasitemia (mean ± SD)", "setting": "[6]", "value": "18.19 ± 6.81", "unit": "%"},
      {"measurement": "%T>TRE", "setting": "[6]", "value": 8.8, "unit": "%"},
      {"measurement": "Parasitemia (mean ± SD)", "setting": "[7]", "value": "20.31 ± 5.71", "unit": "%"},
      {"measurement": "%T>TRE", "setting": "[7]", "value": 0, "unit": "%"},
      {"measurement": "Parasitemia (mean ± SD)", "setting": "[8]", "value": "5.64 ± 1.69", "unit": "%"},
      {"measurement": "%T>TRE", "setting": "[8]", "value": 23.0, "unit": "%"},
      {"measurement": "Parasitemia (mean ± SD)", "setting": "[9]", "value": "6.48 ± 3.94", "unit": "%"},
      {"measurement": "%T>TRE", "setting": "[9]", "value": 22.7, "unit": "%"},
      {"measurement": "Parasitemia (mean ± SD)", "setting": "[10]", "value": "10.83 ± 4.67", "unit": "%"},
      {"measurement": "%T>TRE", "setting": "[10]", "value": 22.3, "unit": "%"},
      {"measurement": "Parasitemia (mean ± SD)", "setting": "[11]", "value": "0.63 ± 0.57", "unit": "%"},
      {"measurement": "%T>TRE", "setting": "[11]", "value": 54.5, "unit": "%"},
      {"measurement": "Parasitemia (mean ± SD)", "setting": "[12]", "value": "0.43 ± 0.38", "unit": "%"},
      {"measurement": "%T>TRE", "setting": "[12]", "value": 56.1, "unit": "%"},
      {"measurement": "Parasitemia (mean ± SD)", "setting": "[13]", "value": "0.55 ± 0.28", "unit": "%"},
      {"measurement": "%T>TRE", "setting": "[13]", "value": 57.3, "unit": "%"},
      {"measurement": "Parasitemia (mean ± SD)", "setting": "[14]", "value": "0.15 ± 0.03", "unit": "%"},
      {"measurement": "%T>TRE", "setting": "[14]", "value": 99.9, "unit": "%"},
      {"measurement": "Parasitemia (mean ± SD)", "setting": "[15]", "value": "0.18 ± 0.04", "unit": "%"},
      {"measurement": "%T>TRE", "setting": "[15]", "value": 99.8, "unit": "%"},
      {"measurement": "Parasitemia (mean ± SD)", "setting": "[16]", "value": "0.16 ± 0.02", "unit": "%"},
      {"measurement": "%T>TRE", "setting": "[16]", "value": 99.8, "unit": "%"}
    ]}
  ]
}
